According to patent US20200239587A1, “SENSITIZATION OF TUMORS TO THERAPIES THROUGH ENDOGLIN ANTAGONISM” (Cedars-Sinai Medical Center, priority 2016, published 2020):
Entries after “also recorded” stand apart in the source; their conditions may differ.

Legend:
22Rv1 = experiment: γ-H2AX and p53BP foci after irradiation; type: cell-based, human; settings: for γ-H2AX and p53BP foci: TRC105 plus 4Gy vs radiation alone
Experimental: 22Rv1 were pre-treated with 1 μg/ml TRC105 24 hours prior to irradiation with 4 Gy. FIG. 22A) γ-H2AX or p53 bp were imunolocalized at 4, 24, and 48 hours post radiation. Foci per nuclei were quantified (n=100). FIG. 22B) Comet assay was performed 30 minutes and 24 hours following irradiation. The tail moment was quantified (n=50). FIG. 22C) Cell cycle analysis was performed on 22Rv1 at 0, 4, 8, and 24 hours post radiation in the presence of IgG or TRC105 (n=3) in 3 independent experiments. (***p<0.001, ****p<0.0001).

MDAMB231 = experiment: Clonogenic survival assay with radiation; type: cell-based, human; settings: breast cancer cell line with mutant yet functional p53; 1 μg/ml TRC105
Experimental: (§1) Assays were performed on cell lines with p53 null prostate cancer cell line, FIG. 23A) PC3 and two p53 mutant pancreatic cancer cell lines, FIG. 23B) MIAPACA-2 and FIG. 23C) HPAF-II with indicated doses of radiation. Breast cancer cell lines with intact p53, FIG. 23D) MCF7 and mutant yet functional p53, FIG. 23E) MDA-MB23 were however radio-sensitized by the 1 μg/ml TRC105.

PC3 = experiment: Clonogenic survival assay with radiation; type: cell-based, human; settings: p53 null prostate cancer cell line
Experimental: as §1

MIAPACA-2 = experiment: Clonogenic survival assay with radiation; type: cell-based, human; settings: p53 mutant pancreatic cancer cell line
Experimental: as §1

MCF7 = experiment: Clonogenic survival assay with radiation; type: cell-based, human; settings: breast cancer cell line with intact p53; 1 μg/ml TRC105
Experimental: as §1

HPAF-II = experiment: Clonogenic survival assay with radiation; type: cell-based, human; settings: p53 mutant pancreatic cancer cell line
Experimental: as §1

PC3 cells [1] = experiment: Cell death assay with docetaxel and TRC105; type: cell-based, human; settings: different concentrations of docetaxel and TRC105
Experimental: The PC3 cells used in the cell death assay were treated with different concentrations of docetaxel in the presence of different concentrations of TRC105.

[2] = test system: androgen receptor variants and RNPC1; experiment: Androgen receptor variants and RNPC1 expression; type: cell-based
[3] = test system: ID1 mRNA expression by Rv1 cells and mouse wild-type fibroblasts; experiment: Species specificity of CD105 antagonists, BMP-induced ID1 mRNA; type: cell-based, human; settings: 1 μg/ml; BMP 50 ng/mL, 6 hours
Experimental: All cells were pre-treated overnight in serum free media, then incubated with BMP (50 ng/mL) in the presence or absence of differing concentrations of concentrations of TRC105 or M1043 for 6 hours (mean+/−SD). Within each group, the left column depicts human PCa and right column depicts mouse fibroblasts.
(§2) Total RNA was extracted using the RNeasy kit (Qiagen). 1 μg RNA was used for cDNA synthesis using iSCRIPT cDNA synthesis kit (1708891, Bio-Rad). Quantitative RT-PCR was performed with 5 replicates using the Step One Real-Time PCR system (Applied Biosystems). Gene mRNA expression was normalized to GAPDH. Primer sequences can be found in the Table 1. For RNA-sequencing, Ion Proton AmpliSeq Transcriptome RNA Sequencing was performed achieving an average of 3M reads. We mapped an average of 88% of the reads to the human genome with Torrent Suite version 4.4.2.

PC3 cells [4] = experiment: MTT proliferation assay; type: cell-based, human; settings: enzalutamide in the presence of TRC105
Experimental: (§3) CW22Rv1, C42B, and PC3 cells from ATCC were expanded as directed. Prostatectomy specimens from Cedars-Sinai Medical Center or the Greater Los Angeles Veterans Affairs were cultured to generate NAF and CAF cells using the same method, as C57BL/6 mouse wild-type prostatic fibroblasts were grown as previously reported (Franco et al., 2011, Cancer research 71, 1272-1281; Kiskowski et al., 2011, Cancer research 68, 4709-4718). TRC105 and M1043 were provided by TRACON Pharmaceuticals, Inc. (San Diego, Calif.). Enzalutamide (Xtandi) was purchased from Medivation (San Francisco, Calif.).
(§4) 3000 cells per 96-well were treated for 72 hours using 5 wells per treatment. MTT reagent (M6494, Life Technologies) was prepared as directed, incubated for one hour at 37° C., and analyzed using manufacturer's recommendations.

Rv1 = experiment: MTT proliferation assay; type: cell-based, human; settings: TRC105 plus enzalutamide
Experimental: as §3, §4

C42B = experiment: MTT proliferation assay; type: cell-based, human; settings: TRC105 plus enzalutamide
Experimental: as §3, §4

[5] = test system: NRF1, MTFA, and CPT1C in 22Rv1 cells; experiment: mRNA expression of PGC1α target genes; type: cell-based, human; settings: radiation vs radiation plus TRC105; p<0.001
Experimental: FIGS. 24A-24D depict that PGC1α and mitochondrial biogenesis are regulated by BMP/CD105. 22Rv1 cells were incubated with IgG or TRC105 with or without 4 Gy irradiation. All measurements were made 72 hours post radiation. FIG. 24A) Western blot for whole cell lysate, nuclear and cytoplasmic fractions were independently analyzed for PGC1α expression. Loading controls included β-actin (whole cell), lamin B (nuclear marker), and Rho A (cytoplasm marker). FIG. 24B) Immunofluorescent localization of PGC1α was visualized with DAPI nuclear counterstain. FIG. 24C) mRNA expression of PGC1α target genes, NRF1, MTFA, and CPT1C was measured. mRNA expression was normalized to GAPDH and untreated IgG 0 Gy. FIG. 24D) Mitochondrial DNA (mtDNA) was measured from total DNA extracts and normalized to nuclear DNA and compared to untreated IgG 0 Gy. Data are reported as means+/−S.D. of 3 independent experiments. (***p<0.001, ****p<0.0001).
as §2, with “Gene mRNA expression was normalized to GAPDH. Primer sequences can be found in the Table 1.” left out

TRC105: partially humanized monoclonal antibody that blocks BMP signaling; human-specific CD105 (endoglin) neutralizing antibody from Tracon Pharmaceuticals
number of cells with greater than 10 foci per nuclei (22Rv1; TRC105 alone (radiation alone 59.6%)): 4.3% | γ-H2AX and p53BP foci (22Rv1; 4 and 24 hours post radiation): significant increase in γ-H2AX and p53BP foci | γ-H2AX and p53BP foci (22Rv1; by 48 hours): no difference | double stranded DNA breaks (22Rv1; TRC105 treatment alone vs untreated, within 24 hours, persisted past 72 hours): significant increase in double stranded DNA breaks | radiation sensitivity, clonogenic survival (MDAMB231): positively sensitized to irradiation; also recorded: radio-sensitized | radiation sensitivity, clonogenic survival (PC3): no evidence of radiation sensitization | radiation sensitivity, clonogenic response (MIAPACA-2): neither the HPAF-II nor MIAPACA-2 cell lines treated with radiation showed a change in clonogenic response | radiation sensitivity, clonogenic survival (MCF7): positively sensitized to irradiation; also recorded: radio-sensitized | radiation sensitivity, clonogenic response (HPAF-II): neither the HPAF-II nor MIAPACA-2 cell lines treated with radiation showed a change in clonogenic response | sensitization to docetaxel, cell death (PC3 cells [1]): taxane sensitizer | RNPC1 (RBM38) expression ([2]; TRC105): down regulated | androgen receptor variants expression ([2]; TRC105): down regulated; also recorded: down-regulated | Notch and IL-6 mediated ARv expression ([2]; antagonizing endoglin): down regulate Notch and IL-6 mediated ARv expression | cross-species reactivity [3]: no cross-species reactivity | viability (MTT) (PC3 cells [4]): insensitive | cell proliferation (MTT), addition of TRC105 to enzalutamide (Rv1): no additional impact | cell proliferation (MTT), addition of TRC105 to enzalutamide (C42B): no additional impact | mRNA expression of NRF1, MTFA, and CPT1C [5]: significantly increased with radiation compared to that in the presence of TRC105
